Experimental data taken from US7374901B2, “Method of analyzing coenzyme Q-10 and two-electron reduction product thereof and analysis system” (Shiseido Company Ltd., priority 2002, dated 2008).

What was measured:
[1] = Storage stability of isopropyl alcohol extracted liquid from human blood plasma (FIG. 5); format: physicochemical; details: isopropyl alcohol extract of human blood plasma, stored at around 4° C., even after at least 11 hours
Protocol: 50 μl of human blood plasma as a specimen is sampled (S-1 in FIG. 4), 950 μl of isopropyl alcohol is added into it (S-2 in FIG. 4), and then they are mixed sufficiently. Subsequently, they are subjected to a centrifugal separator at a rotational speed of 12,000 rpm for 3 minutes and at a temperature of 4° C. Thus, coenzyme Q-10 and a 2-electron reduced form thereof are extracted from the specimen into an isopropyl alcohol phase (S-3 in FIG. 4).
When an extracted liquid into which the coenzyme Q-10, etc., has been extracted is stored at a temperature around 4° C. […] Thus, the alteration of a stored analytical sample can be prevented. Additionally, the longitudinal axis in regard to coenzyme Q-10 in FIG. 5(b) represents the ratio (molar-ratio) of the coenzyme Q-10 occupied in the total quantity of the coenzyme Q-10 and the 2-electron reduced form thereof.

[2] = Storage stability of methanol/hexane extraction liquid, conventional pretreatment (FIG. 3); format: physicochemical; details: various storage temperatures (FIG. 3)
Protocol: In this case, since the measurement is influenced by a water-soluble antioxidation substance in the specimen, such as vitamin C and uric acid, etc., a pretreatment is performed for subjecting the specimen to an extraction treatment with methanol/hexane so as to distribute the water-soluble antioxidation substance into a methanol phase and the coenzyme Q-10, etc., into a hexane phase.
It is therefore necessary to perform analysis immediately after the extraction of the specimen. […] Herein, each temperature indicates a storage temperature of the hexane extraction liquid in FIG. 3.

COc1c(O)c(C)c(C/C=C(\C)CC/C=C(\C)CC/C=C(\C)CC/C=C(\C)CC/C=C(\C)CC/C=C(\C)CC/C=C(\C)CC/C=C(\C)CC/C=C(\C)CCC=C(C)C)c(O)c1OC [2-electron reduced form of coenzyme Q-10]
oxidation of the 2-electron reduced form during storage of the extracted liquid [1]: rarely oxidized | stability / oxidation in the hexane extraction liquid after pretreatment until injection into HPLC [2]: oxidized at a substantial rate

COC1=C(OC)C(=O)C(C/C=C(\C)CC/C=C(\C)CC/C=C(\C)CC/C=C(\C)CC/C=C(\C)CC/C=C(\C)CC/C=C(\C)CC/C=C(\C)CC/C=C(\C)CCC=C(C)C)=C(C)C1=O [coenzyme Q-10, 2,3-dimethoxy-5-methyl-6-polyprenyl-1,4-benzoquinone]
stability / oxidation in the hexane extraction liquid after pretreatment until injection into HPLC [2]: chemically unstable
